Assays:
[1] = tested on: monoubiquitinated PCNA; assay: AlphaLISA assay measuring monoubiquitinated PCNA in MDA-MB-436; format: cell-based; conditions: Homo sapiens, read-out: Alpha LISA IC50
From the text: Table 1 also indicates IC50 values for exemplary compounds in an AlphaLISA assay measuring monoubiquitinated PCNA in a BRCA1 mutant cell line (MDA-MB-436; column 7).

[2] = tested on: MDA-MB-436 (BRCA1 mutant) cell line; assay: Viability assay in BRCA1 mutant cell line MDA-MB-436; format: cell-based; conditions: Homo sapiens, MDA-MB-436, viability, BRCA1 mutant MDA-MB-436; read-out: MDA-MB-436 rel IC50
From the text: (§1) Table 1 also indicates IC50 values in a viability assay for a non-isogenic pair of BRCA1 mutant (column 5—MDA-MB-436) and BRCA1 WT (column 6—HCC1954) cell lines. These values indicate the effect of treatment with compound on cell survival.

[3] = target: USP1-UAF1 (Homo sapiens, UniProt O94782); assay: Ubiquitin Rhodamine assay for USP1-UAF1 activity; format: biochemical
Description: Certain compounds of the disclosure were assessed for USP1-UAF1 activity in a Ubiquitin Rhodamine assay as described in Example 135.

[4] = tested on: HCC1954 (BRCA1 WT) cell line; assay: Viability assay in BRCA1 WT cell line HCC1954; format: cell-based; conditions: Homo sapiens, read-out: HCC 1954 IC50 rel IC50
From the text: as §1

Sequence of USP1-UAF1 (O94782 whole entry): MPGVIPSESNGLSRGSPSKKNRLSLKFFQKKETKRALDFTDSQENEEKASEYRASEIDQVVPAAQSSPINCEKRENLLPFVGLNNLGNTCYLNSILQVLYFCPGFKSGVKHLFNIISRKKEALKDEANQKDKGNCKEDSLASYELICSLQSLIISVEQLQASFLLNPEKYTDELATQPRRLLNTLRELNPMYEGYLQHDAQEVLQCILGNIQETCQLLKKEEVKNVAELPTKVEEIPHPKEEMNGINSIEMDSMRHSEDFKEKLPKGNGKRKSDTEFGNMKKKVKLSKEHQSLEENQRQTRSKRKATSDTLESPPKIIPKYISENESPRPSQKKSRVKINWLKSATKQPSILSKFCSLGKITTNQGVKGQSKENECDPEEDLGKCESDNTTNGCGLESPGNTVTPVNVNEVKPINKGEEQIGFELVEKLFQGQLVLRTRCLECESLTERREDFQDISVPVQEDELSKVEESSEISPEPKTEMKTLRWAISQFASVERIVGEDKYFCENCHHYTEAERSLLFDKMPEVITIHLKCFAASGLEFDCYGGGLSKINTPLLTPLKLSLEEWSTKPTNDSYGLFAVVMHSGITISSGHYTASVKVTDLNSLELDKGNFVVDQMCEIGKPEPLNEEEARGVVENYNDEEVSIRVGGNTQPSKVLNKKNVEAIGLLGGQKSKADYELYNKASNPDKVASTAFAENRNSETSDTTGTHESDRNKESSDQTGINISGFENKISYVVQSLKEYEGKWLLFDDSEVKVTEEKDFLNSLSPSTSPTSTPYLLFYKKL
Sequence of USP1-UAF1 (Q8TAF3 whole entry partner): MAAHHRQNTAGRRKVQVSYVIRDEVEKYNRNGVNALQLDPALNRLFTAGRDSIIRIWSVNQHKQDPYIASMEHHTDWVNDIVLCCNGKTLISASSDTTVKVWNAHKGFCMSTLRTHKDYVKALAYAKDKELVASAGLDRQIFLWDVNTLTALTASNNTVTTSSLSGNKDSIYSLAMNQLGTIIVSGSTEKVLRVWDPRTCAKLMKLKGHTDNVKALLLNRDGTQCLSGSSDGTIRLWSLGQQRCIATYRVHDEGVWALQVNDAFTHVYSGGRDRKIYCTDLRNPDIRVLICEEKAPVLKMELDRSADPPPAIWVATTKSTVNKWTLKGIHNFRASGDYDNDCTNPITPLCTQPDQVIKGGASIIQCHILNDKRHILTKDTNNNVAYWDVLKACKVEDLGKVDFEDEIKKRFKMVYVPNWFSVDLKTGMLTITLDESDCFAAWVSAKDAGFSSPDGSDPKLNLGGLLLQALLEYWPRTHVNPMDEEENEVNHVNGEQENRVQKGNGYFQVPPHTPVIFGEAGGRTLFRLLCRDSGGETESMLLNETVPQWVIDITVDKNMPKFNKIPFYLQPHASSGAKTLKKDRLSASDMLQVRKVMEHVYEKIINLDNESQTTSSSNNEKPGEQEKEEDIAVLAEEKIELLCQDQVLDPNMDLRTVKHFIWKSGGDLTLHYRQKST

| IC50 [1] [nM] | IC50 [2] [nM] | IC50 [3] [nM] | IC50 [4] [nM] | SMILES |
| --- | --- | --- | --- | --- |
| < 100 | < 100 | < 30 | ≥ 10000 | COc1ncnc(C2CC2(F)F)c1-c1ncc2[nH]nc(Cc3ccc(-c4nc(C(F)(F)F)cn4C)cc3)c2n1 (centres unmarked) [Compound 172, 5-[4-(2,2-difluorocyclopropyl)-6-methoxy-pyrimidin-5-yl]-3-[[4-[1-methyl-4-(trifluoromethyl)imidazol-2-yl]phenyl]methyl]-1H-pyrazolo[4,3-d]pyrimidine] |
| 100 to 250 | 100 to 250 | < 30 | ≥ 10000 | Cn1cc(C(F)(F)F)nc1-c1ccc(Cc2n[nH]c3cnc(-c4c(C5CC5)ccnc4C4CC4)nc23)cc1 [Compound 174] |
| 100 to 250 | 100 to 250 | 100 to 10000 | ≥ 10000 | CNc1ncnc(C2CC2)c1-c1ncc2[nH]cc(Cc3ccc(-c4nc(C(F)(F)F)cn4C)cc3)c2n1 [Compound 175] |
| < 100 | < 100 | < 30 | ≥ 10000 | COc1ncnc(C2CC2)c1-c1cc2c(Cc3ccc(-c4nc(C(F)(F)F)cn4C)cc3)n[nH]c2cn1 [Compound 177, 5-(4-cyclopropyl-6-methoxypyrimidin-5-yl)-3-(4-(1-methyl-4-(trifluoromethyl)-1H-imidazol-2-yl)benzyl)-1H-pyrazolo[3,4-c]pyridine] |
| < 100 | < 100 | 30 to 100 | 250 to 10000 | CNCc1[nH]c2cnc(-c3cccnc3C3CC3)nc2c1Cc1ccc(-c2nc(C(F)(F)F)cn2C)cc1 [Compound 178, 1-[2-(2-cyclopropyl-3-pyridyl)-7-[[4-[1-methyl-4-(trifluoromethyl)imidazol-2-yl]phenyl]methyl]-5H-pyrrolo[3,2-d]pyrimidin-6-yl]-N-methyl-methanamine] |
| < 100 | < 100 | < 30 | ≥ 10000 | COc1ncnc(C2CC2)c1-c1ncc2[nH]c(F)c(Cc3ccc(-c4nc(C(F)(F)F)cn4C)cc3)c2n1 [Compound 181, 2-(4-cyclopropyl-6-methoxy-pyrimidin-5-yl)-6-fluoro-7-[[4-[1-methyl-4-(trifluoromethyl)imidazol-2-yl]phenyl]methyl]-5H-pyrrolo[3,2-d]pyrimidine] |

More lines, now with the values behind:

| SMILES | IC50 [1] [nM] | IC50 [2] [nM] | IC50 [3] [nM] | IC50 [4] [nM] |
| --- | --- | --- | --- | --- |
| Cn1cc(C(F)(F)F)nc1-c1ccc(C(O)c2c[nH]c3cnc(-c4c(OC(F)F)ncnc4C4CC4)nc23)cc1 (centres unmarked) [Compound 168, [2-[4-cyclopropyl-6-(difluoromethoxy)pyrimidin-5-yl]-5H-pyrrolo[3,2-d]pyrimidin-7-yl]-[4-[1-methyl-4-(trifluoromethyl)imidazol-2-yl]phenyl]methanol] | < 100 | < 100 | 30 to 100 | 250 to 10000 |
| COc1ncnc(C2CC2)c1-c1ncc2[nH]nc(Cc3cc(F)c(-c4nc(C(F)(F)F)cn4C)c(F)c3)c2n1 [Compound 171, 5-(4-cyclopropyl-6-methoxy-pyrimidin-5-yl)-3-[[3,5-difluoro-4-[1-methyl-4-(trifluoromethyl)imidazol-2-yl]phenyl]methyl]-1H-pyrazolo[4,3-d]pyrimidine] | < 100 | < 100 | < 30 | ≥ 10000 |
| COc1ncnc(C2CC2)c1-c1ncc2[nH]c(CN(C)C)c(Cc3ccc(-c4nc(C(F)(F)F)cn4C)cc3)c2n1 [Compound 176, 1-[2-(4-cyclopropyl-6-methoxy-pyrimidin-5-yl)-7-[[4-[1-methyl-4-(trifluoromethyl)imidazol-2-yl]phenyl]methyl]-5H-pyrrolo[3,2-d]pyrimidin-6-yl]-N,N-dimethyl-methanamine] | < 100 | < 100 | 30 to 100 | ≥ 10000 |
| COc1ncnc(C2CC2)c1-c1ncc2[nH]cc(Sc3ccc(-c4nc(C(F)(F)F)cn4C)cc3)c2n1 [Compound 180] | 100 to 250 | 100 to 250 | 100 to 10000 | ≥ 10000 |
| COc1ncnc(OC)c1-c1ncc2[nH]cc(Cc3ccc(-c4nc(C(F)(F)F)cn4C(C)C)cc3)c2n1 [Compound 182] | < 100 | 100 to 250 | 30 to 100 | ≥ 10000 |
